Values after ≈ are worked out from the molar mass of the structure shown.

Assay [1] relates to Trypanosoma brucei rhodesiense. Briefly: Trypanocidal activity against Trypanosoma brucei rhodesiense assessed as parasite growth inhibition at 50 ug/ml incubated for 3 days by Celltiter-Glo luminescence assay. It is filed as functional. More on the design: scale not given: the % may be the effect or the level left. To be noted: dose 50 µg/ml; time 3 day. For orientation: ATP-based viability assays read luminescence as a measure of living cells.

The subject of assay [2] is Trypanosoma brucei rhodesiense. The assay can be described thus: Trypanocidal activity against Trypanosoma brucei rhodesiense IL1501 assessed as parasite growth inhibition at 50 ug/ml incubated for 3 days by Celltiter-Glo luminescence assay. More on the design: scale not given: the % may be the effect or the level left. To be noted: dose 50 µg/ml; time 3 day. The class given is functional.

The test system of assay [3] is Trypanosoma brucei brucei. Briefly: Trypanocidal activity against Trypanosoma brucei brucei GUTat3.1 assessed as parasite growth inhibition incubated for 3 days by Celltiter-Glo luminescence assay. The class given is functional, organism-based. The note with it: GUTat3.1, 72 h.
Assay [4] concerns Trypanosoma evansi. Briefly: Trypanocidal activity against Trypanosoma evansi assessed as parasite growth inhibition at 50 ug/ml incubated for 3 days by Celltiter-Glo luminescence assay. More on the design: scale not given: the % may be the effect or the level left. To be noted: dose 50 µg/ml; time 3 day. It is filed as functional.
In assay [5] the test system is Trypanosoma brucei brucei. The assay can be described thus: Trypanocidal activity against Trypanosoma brucei brucei GUTat3.1 assessed as parasite growth inhibition at 50 ug/ml incubated for 3 days by Celltiter-Glo luminescence assay. The class given is functional. Also noted: scale not given: the % may be the effect or the level left. To be noted: dose 50 µg/ml; time 3 day.

For assay [6], the system named is Trypanosoma brucei gambiense. The assay can be described thus: Trypanocidal activity against Trypanosoma brucei gambiense IL1922 assessed as parasite growth inhibition at 50 ug/ml incubated for 3 days by Celltiter-Glo luminescence assay. It is filed as functional. More on the design: scale not given: the % may be the effect or the level left. To be noted: dose 50 µg/ml; time 3 day.

Assay [7] concerns Trypanosoma brucei gambiense. Briefly: Trypanocidal activity against Trypanosoma brucei gambiense IL1922 assessed as parasite growth inhibition incubated for 3 days by Celltiter-Glo luminescence assay. The note with it: IL1922, 72 h. It is filed as functional, organism-based.
The subject of assay [8] is Trypanosoma brucei rhodesiense. The assay can be described thus: Trypanocidal activity against Trypanosoma brucei rhodesiense IL1501 assessed as parasite growth inhibition incubated for 3 days by Celltiter-Glo luminescence assay. The class given is functional, organism-based. To be noted: IL1501, 72 h.
For assay [9], the system named is Trypanosoma brucei rhodesiense. The assay can be described thus: Trypanocidal activity against Trypanosoma brucei rhodesiense assessed as parasite growth inhibition incubated for 3 days by Celltiter-Glo luminescence assay. The class given is functional, organism-based. The note with it: 72 h.
For assay [10], the system named is Trypanosoma evansi. Briefly: Trypanocidal activity against Trypanosoma evansi assessed as parasite growth inhibition incubated for 3 days by Celltiter-Glo luminescence assay. The class given is functional, organism-based. The note with it: 72 h.
For assay [11], the system named is Trypanosoma congolense. Briefly: Trypanocidal activity against Trypanosoma congolense IL3000 assessed as parasite growth inhibition incubated for 3 days by Celltiter-Glo luminescence assay. The note with it: IL3000, 72 h.
The test system of assay [12] is Trypanosoma congolense. Briefly: Trypanocidal activity against Trypanosoma congolense IL3000 assessed as parasite growth inhibition at 50 ug/ml incubated for 3 days by Celltiter-Glo luminescence assay. To be noted: dose 50 µg/ml; time 3 day. More on the design: scale not given: the % may be the effect or the level left.

As usually defined, the IC50 is the point on the concentration scale where inhibition reaches its midpoint. Turning to `Oc1ccc([C@H]2Oc3cc(O)cc(O)c3C[C@@H]2O)cc1`, the Activity in [1] came out at 99.71%; in assay [2], 96.07%; with Trypanosoma evansi [4], 99.7%; in assay [5], 98.54%; in [6], 90.28%; in the assay with Trypanosoma congolense [12], 99.57%. The half-inhibitory concentration (IC50) in [3] was found to be 38.6 µg/mL (≈ 141 µM); in [7], 46.4 µg/mL (≈ 169 µM); in assay [8], 45.7 µg/mL (≈ 167 µM); in assay [9] it was 4.03 µg/mL (≈ 14.7 µM); in the assay with Trypanosoma evansi [10], 14.4 µg/mL (≈ 52.6 µM); in the assay on Trypanosoma congolense [11] it was 28.3 µg/mL (≈ 103 µM).

With `Oc1ccc2c(c1)O[C@H](c1ccc(O)c(O)c1)[C@@H](O)[C@@H]2c1c(O)cc(O)c2c1O[C@H](c1cc(O)c(O)c(O)c1)[C@H](O)C2`, the Activity in [1] was determined as 99.93%; in assay [2] it was 24.11%; in the assay with Trypanosoma evansi [4], 57.8%; in assay [5], 10.18%; in [6] it was 14.68%; with Trypanosoma congolense [12] it was 72.01%. Moreover, the half-maximal inhibitory concentration (IC50) was 10.9 µg/mL (≈ 18.9 µM) in assay [9], 12.2 µg/mL (≈ 21.2 µM) with Trypanosoma evansi [10] and 13.1 µg/mL (≈ 22.6 µM) with Trypanosoma congolense [11].

Turning to `N=C(N)c1ccc(/N=N/Nc2ccc(C(=N)N)cc2)cc1` [DIMINAZENE], the half-inhibitory concentration (IC50) in assay [3] was 0.02 µg/mL (≈ 0.0711 µM); in [7], 0.0066 µg/mL (≈ 0.0235 µM); in assay [8] it was 0.013 µg/mL (≈ 0.0462 µM); in [9], 0.081 µg/mL (≈ 0.288 µM); in the assay with Trypanosoma evansi [10], 0.0033 µg/mL (≈ 0.0117 µM); in the assay on Trypanosoma congolense [11], 0.065 µg/mL (≈ 0.231 µM).

As for `NCCC[C@](N)(C(=O)O)C(F)F` [EFLORNITHINE, (S)-], the IC50 amounted to 7.03 µg/mL (≈ 38.6 µM) in assay [3]; 6.68 µg/mL (≈ 36.7 µM) in [7]; 8.38 µg/mL (≈ 46 µM) in assay [8]; 6.5 µg/mL (≈ 35.7 µM) in [9]; 10.4 µg/mL (≈ 57.2 µM) with Trypanosoma evansi [10]; 2.94 µg/mL (≈ 16.1 µM) with Trypanosoma congolense [11].

Take `Oc1cc(O)c2c(c1)O[C@H](c1cc(O)c(O)c(O)c1)[C@H](O)C2` [EPIGALLOCATECHIN]: the Activity in assay [1] is reported as 100.06%; in assay [2], 66.56%; with Trypanosoma evansi [4], 99.99%; in [5], 62.43%; in assay [6], 85.1%; with Trypanosoma congolense [12], 99.94%. The IC50 came out at 1.62 µg/mL (≈ 5.29 µM) in [9], 1.58 µg/mL (≈ 5.16 µM) in the assay on Trypanosoma evansi [10] and 2.38 µg/mL (≈ 7.77 µM) with Trypanosoma congolense [11].

With `N=C(N)c1ccc(OCCCCCOc2ccc(C(=N)N)cc2)cc1` [PENTAMIDINE], the 50% inhibitory concentration (IC50) in [3] came to 0.014 µg/mL (≈ 0.0411 µM); in assay [7], 0.0049 µg/mL (≈ 0.0144 µM); in [8], 0.0099 µg/mL (≈ 0.0291 µM); in [9], 0.0017 µg/mL (≈ 0.00499 µM); with Trypanosoma evansi [10], 0.00033 µg/mL (≈ 0.000969 µM); in the assay on Trypanosoma congolense [11], 0.11 µg/mL (≈ 0.323 µM).

Consider `Cc1ccc(C(=O)Nc2ccc(S(=O)(=O)O)c3cc(S(=O)(=O)O)cc(S(=O)(=O)O)c23)cc1NC(=O)c1cccc(NC(=O)Nc2cccc(C(=O)Nc3cc(C(=O)Nc4ccc(S(=O)(=O)O)c5cc(S(=O)(=O)O)cc(S(=O)(=O)O)c45)ccc3C)c2)c1` [SURAMIN], for which the half-maximal inhibitory concentration (IC50) in assay [3] was 0.094 µg/mL (≈ 0.0725 µM); in [7] it was 0.092 µg/mL (≈ 0.0709 µM); in assay [8], 0.11 µg/mL (≈ 0.0848 µM); in assay [9], 0.094 µg/mL (≈ 0.0725 µM); in the assay on Trypanosoma evansi [10] it was 0.54 µg/mL (≈ 0.416 µM); in the assay with Trypanosoma congolense [11], 10.2 µg/mL (≈ 7.9 µM).

For the origin of these results see ChEMBL document CHEMBL5042509, “Benzophenone Glucosides and B-Type Proanthocyanidin Dimers from Zambian Cassia abbreviata and Their Trypanocidal Activities” (J Nat Prod, 2022).
